Assay in all cases: growth of human tumour cells (NCI), 48 h
Assay [1] relates to UACC-62 melanoma.
Assay [2] deals with OVCAR-8 ovarian.
Assay [3] relates to CCRF-CEM leukemia.
Assay [4] deals with MDA-N.
The test system of assay [5] is DU-145 prostate.
Assay [6] relates to MALME-3M melanoma.
Assay [7] concerns SN12C renal.
The subject of assay [8] is HCC-2998 colon.
In assay [9] the test system is OVCAR-5 ovarian.
Assay [10] concerns NCI-H23 lung.

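1) Cells in 96-well plates. 2) Compound, 48 h, 5 concentrations. 3) Linear interpolation between surrounding doses. 4) Unreached endpoint = highest concentration. TGI: concentration producing complete growth inhibition.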

With `S=C(S)NCNC(=S)S.[Zn+2]`, the TGI in assay [1], in [2], in assay [3], in assay [4], in assay [5] and in assay [6] was above 100 µM in each case. Besides, the TGI in assay [7], in assay [8], in assay [9] and in [10] was above 100 µM throughout.
`COC(=O)C1=C(C(=O)NNc2ccccc2)N(c2cccnc2Cl)C(c2ccccc2)=CC1c1ccccc1` (stereo not given): the TGI in assay [1] was above 100 µM; in assay [2], above 100 µM; in assay [3], above 100 µM; in [4] it was 45.6 µM; in assay [5] it was above 100 µM; in assay [6], above 100 µM. Also, the TGI in [7], in assay [8], in assay [9] and in assay [10] was above 100 µM each time.
`COc1ccc2cc(/C=N/NC(=O)Nc3ccccc3)ccc2c1`: the TGI in [1], in assay [2], in assay [3], in assay [4], in assay [5] and in assay [6] was above 100 µM in each case. Moreover, the TGI in assay [7], in [8], in assay [9] and in assay [10] was above 100 µM in each case.
Take `CC(O)C1(CNc2cc(Cl)nc(N)n2)CCC1` (stereo not given): the TGI in [1], in assay [2], in assay [3], in assay [4], in [5] and in assay [6] was above 100 µM each time. For the same compound, the TGI in assay [7], in [8], in assay [9] and in assay [10] was above 100 µM in each case.
For `O=[N+]([O-])/C(C(Cl)=C(Cl)Cl)=C(/Cl)Sc1ccccc1`, the TGI worked out at 3.36 µM in assay [1]; 0.786 µM in assay [2]; 0.435 µM in assay [3]; 3.78 µM in [4]; 11.2 µM in assay [5]; 3.03 µM in assay [6]. The TGI in [7] was found to be 3.55 µM; in assay [8] it was 5.7 µM; in assay [9], 3.9 µM; in assay [10], 4.1 µM.
On to `CCOC(=O)CN1C(=O)c2ccc(NC(=O)C(=O)O)cc2S1(=O)=O`, for which the TGI in [1], in assay [2], in assay [3], in assay [4], in assay [5] and in [6] was above 100 µM throughout. Besides, the TGI in assay [7], in assay [8], in assay [9] and in assay [10] was above 100 µM each time.
Turning to `CN(C)CCCC12CCCCC1=Nc1ccccc12` (stereo not given), the TGI in assay [1], in assay [2], in [3], in assay [4], in assay [5] and in [6] was above 100 µM each time. The TGI in assay [7], in assay [8], in assay [9] and in assay [10] was above 100 µM in each case.
`NC(=O)C(C(N)=O)=C(O)C(=O)/C=C(\O)c1ccccc1`: the TGI in assay [1] was above 100 µM; in [2], above 100 µM; in assay [3], 52.5 µM; in assay [4] it was above 100 µM; in [5], above 100 µM; in [6], above 100 µM. In addition, the TGI in [7], in [8], in [9] and in [10] was above 100 µM each time.
Turning to `Cn1c(=O)c2c(nc(Cc3ccccc3)n2CC(=O)O)n(C)c1=O`, the TGI in assay [1], in assay [2], in [3], in [4], in assay [5] and in assay [6] was above 100 µM each time. In addition, the TGI in assay [7], in [8], in assay [9] and in [10] was above 100 µM throughout.
On to `CCOC(=O)NC(Nc1ccc(S(=O)(=O)Nc2nc(C)cc(C)n2)cc1)(C(=O)OCC)C(F)(F)F` (stereo not given), for which the TGI in assay [1], in assay [2], in assay [3], in assay [4], in [5] and in [6] was above 100 µM each time. The TGI in assay [7], in assay [8], in assay [9] and in assay [10] was above 100 µM throughout.
Take `CCC(C)OC(=O)/C(Br)=C1/OC(=O)c2ccccc2-c2ccccc21` (stereo not given): the TGI is 57.5 µM in assay [1]; above 100 µM in [2]; 52 µM in assay [3]; above 100 µM in assay [4]; above 100 µM in assay [5]; 80.6 µM in assay [6]. In addition, the TGI in assay [7] is above 100 µM; in assay [8], 39.4 µM; in assay [9], above 100 µM; in [10], above 100 µM.
For the compound `O=C1C(c2c(O)[nH]c3ccc(F)cc23)=Nc2ccccc21`, the TGI was above 100 µM in assay [1]; 43.8 µM in assay [2]; above 100 µM in [3]; above 100 µM in assay [4]; above 100 µM in [5]; above 100 µM in [6]. Further, the TGI in [7], in [8], in assay [9] and in assay [10] was above 100 µM each time.
On to `CCOC1OC(=O)c2cc3ccc4c(c3c(-c3ccc5c(c3)OCO5)c21)OCO4` (stereo not given), for which the TGI was above 59.2 µM in [1]; above 100 µM in assay [2]; above 100 µM in [3]; 5.2 µM in assay [4]; above 100 µM in [5]; above 100 µM in assay [6]. Moreover, the TGI in [7] was above 100 µM; in assay [8] it was 20.3 µM; in assay [9] it was above 100 µM; in [10] it was above 55.3 µM.
Consider `N#Cc1c(N)nc2n[nH]c(N)c2c1-c1ccc(Cl)cc1`, for which the TGI in [1] is 4.23 µM; in [2] it was above 50.8 µM; in assay [3] it was above 100 µM; in assay [4] it was above 100 µM; in assay [5] it was above 71.8 µM; in assay [6] it was 8.69 µM. In addition, the TGI is 51.6 µM in [7], above 64.7 µM in [8], above 100 µM in [9] and 29.8 µM in [10].
Take `O=C(/C=C/c1cc2ccccc2o1)N1CCN(c2ccccn2)CC1`: the TGI in assay [1], in assay [2], in assay [3], in assay [4], in [5] and in assay [6] was above 100 µM throughout. Also, the TGI in assay [7], in [8], in assay [9] and in assay [10] was above 100 µM throughout.
As for `CC(C)(C)OC(=O)[C@H]1CCC(=S)N1Cc1ccccc1`, the TGI in [1], in assay [2], in assay [3], in [4], in assay [5] and in [6] was above 100 µM throughout. The TGI in assay [7], in assay [8], in assay [9] and in [10] was above 100 µM each time.
Regarding `COC(=O)c1ccccc1/C=C1\Cc2ccc(C)c(C)c2C1=O`, the TGI in [1], in [2], in assay [3], in assay [4], in [5] and in [6] was above 100 µM in each case. Moreover, the TGI in assay [7], in [8], in assay [9] and in assay [10] was above 100 µM each time.
For `O=Cc1[nH]c(=O)[nH]c(=O)c1C(=O)O`, the TGI in assay [1], in assay [2], in assay [3], in assay [4], in [5] and in assay [6] was above 100 µM each time. Also, the TGI in assay [7], in assay [8], in assay [9] and in assay [10] was above 100 µM each time.
Take `O=[N+]([O-])c1ccc2c(c1)C1=C(CO2)Cc2ccccc2O1`: the TGI in assay [1] is 50.7 µM; in assay [2] it was above 100 µM; in assay [3], above 100 µM; in [4], 33.1 µM; in assay [5] it was above 100 µM; in assay [6], 70.4 µM. The TGI in assay [7] worked out at 45.2 µM; in [8] it was 35.3 µM; in assay [9], 54.7 µM; in [10] it was 59.2 µM.
On to `Fc1cc(-c2cc(-c3ccccc3)no2)c(Cl)cc1Cl`, for which the TGI in assay [1] is above 100 µM; in [2] it was above 40.8 µM; in [3] it was above 49.6 µM; in [4], above 68.9 µM; in [5], above 48.6 µM; in assay [6] it was above 35.2 µM. In addition, the TGI was above 54.4 µM in [7], above 72 µM in [8], above 42.9 µM in assay [9] and above 34.2 µM in [10].
Regarding `CCOC(=O)C12OC(CCC1=O)C(C(=O)OC)=C2C(=O)OC` (stereo not given), the TGI in [1], in assay [2], in assay [3], in assay [4], in assay [5] and in assay [6] was above 10 µM in each case. In addition, the TGI in assay [7], in assay [8], in [9] and in assay [10] was above 10 µM in each case.
On to `Cc1ccnc2[nH]c3ccccc3c(=O)c12`, for which the TGI in [1] is 40 µM; in assay [2], above 100 µM; in assay [3], above 100 µM; in assay [4], 47 µM; in [5] it was above 100 µM; in assay [6], 43.1 µM. Besides, the TGI in assay [7] is 52.4 µM; in assay [8], 65 µM; in assay [9] it was above 100 µM; in assay [10], 90.6 µM.
`O=C(O)[C@@H]1CCS(=O)(=O)N1`: the TGI in assay [1], in assay [2], in [3], in [4], in [5] and in assay [6] was above 100 µM each time. For the same compound, the TGI in [7], in [8], in assay [9] and in [10] was above 100 µM each time.
Consider `Oc1[nH]c2ccccc2c1N=NC(=S)Nc1cccc(Cl)c1`, for which the TGI in assay [1] was 29 µM; in assay [2], 35.7 µM; in assay [3], 31 µM; in assay [4], above 100 µM; in [5], above 100 µM; in assay [6], 52.3 µM. Further, the TGI in assay [7] is above 100 µM; in [8] it was above 100 µM; in [9], above 100 µM; in assay [10], 52.3 µM.
Turning to `O=C(Oc1ccccn1)c1cc2cc(CCl)ccc2oc1=O`, the TGI is 85.6 µM in [1]; above 100 µM in assay [2]; above 100 µM in assay [3]; above 100 µM in [4]; above 100 µM in assay [5]; 31.3 µM in assay [6]. For the same compound, the TGI is 56.7 µM in [7], above 100 µM in [8], above 100 µM in assay [9] and 62.7 µM in [10].
As to `C[C@H](CCC(=O)O)[C@H]1CC[C@H]2[C@@H]3CC[C@@H]4C[C@H](O)CC[C@]4(C)[C@H]3C[C@H](O)[C@]12C`, the TGI in assay [1] is above 100 µM; in [2] it was above 100 µM; in assay [3], 63.8 µM; in assay [4] it was above 100 µM; in assay [5], above 100 µM; in assay [6], above 100 µM. In addition, the TGI in assay [7], in assay [8], in assay [9] and in [10] was above 100 µM in each case.
Consider `C/C=C(/C)C(=O)O[C@@H]1CCN2CC[C@H](COC(=O)/C(=C/C)CO)C12` (stereo not given in full), for which the TGI in [1] was above 100 µM; in [2], above 100 µM; in assay [3] it was above 100 µM; in assay [4], above 100 µM; in assay [5], above 100 µM; in [6], 84.2 µM. Moreover, the TGI in [7] was above 100 µM; in assay [8], 44 µM; in [9] it was above 100 µM; in assay [10], above 100 µM.

The record behind these values is PubChem BioAssay (NCI).
